The data set deals with Yap1 mRNA. In words: Antisense inhibition of human Yap1 in SNU-449 cells by modified oligonucleotides, single dose (Example 5, RTS36584). It counts as cell-based. The procedure, abridged:
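Each modified oligonucleotide is applied by free uptake to SNU-449 cultures at 2,000 nM, and total RNA is harvested around 48 h later. Yap1 transcript, quantified with the RTS36584 set and corrected for RIBOGREEN RNA content, is given as % UTC. Asterisks mark sequences overlapping the amplicon.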

[1] abbreviates: Table 41, SNU-449 cells, 10,000 cells per well, free uptake, 2,000 nM modified oligonucleotide, approximately 48 hours, RTS36584, normalized to RIBOGREEN, Yap1 mRNA relative to untreated control cells.
Setting [2] is: Table 48, Yap1 mRNA level relative to untreated control, modified oligonucleotides targeting SEQ ID NO.: 1 and 2.
Where [3] appears, read: Table 39, SNU-449 cells, 10,000 cells per well, free uptake, 2,000 nM oligonucleotide, approx. 48 hours, RTS36584, normalized to RIBOGREEN, Yap1 mRNA relative to untreated control.
The mark [4] stands for this setting: Table 52, Yap1 mRNA, modified oligonucleotides targeting SEQ ID NO: 1 and 2.
Where [5] appears, read: Table 51, Yap1 mRNA remaining as percent of untreated control (UT), SNU-449 cells, single dose.
[6] abbreviates: Table 43 experiment, SNU-449 cells, 10,000 cells per well, free uptake, 2,000 nM, approximately 48 hours, RTS36584, Yap1 mRNA normalized to RIBOGREEN, relative to untreated control cells.
Setting [7] is: Table 42 (separate experiment), SNU-449 cells, 10,000 cells per well, free uptake, 2,000 nM modified oligonucleotide, approximately 48 hours, RTS36584, normalized to RIBOGREEN, Yap1 mRNA relative to untreated control cells.
[8] abbreviates: Table 44 experiment, SNU-449 cells, 10,000 cells per well, free uptake, 2,000 nM, approximately 48 hours, RTS36584, Yap1 mRNA normalized to RIBOGREEN, relative to untreated control cells.
[9] abbreviates: Table 40 (separate experiment), SNU-449 cells, 10,000 cells per well, free uptake, 2,000 nM oligonucleotide, approx. 48 hours, RTS36584, normalized to RIBOGREEN, Yap1 mRNA relative to untreated control.
[10] abbreviates: Table 45, Yap1 mRNA as percent of untreated control, SNU-449 cells, single dose.
Setting [11] is: Table 49, Yap1 mRNA level relative to untreated control, modified oligonucleotides targeting SEQ ID NO.: 1 and 2.
Setting [12] is: Yap1 mRNA, percent of untreated control, modified oligonucleotides targeting SEQ ID NO: 1 and 2, Table 47.

Strand notation (5' to 3'): a small letter for the sugar, then the base; units joined by * are phosphorothioate-linked, units joined directly phosphodiester-linked; [ ] holds rarer units or linkages, { } end groups; capitals alone tell only the bases. e = 2'-O-(2-methoxyethyl) (MOE); k = constrained ethyl (cEt); [5mC] = 5-methylcytosine; d = 2'-deoxy (DNA); m = 2'-O-methyl

As to “1198768 (kA*eT*kA*dT*dG*dG*dT*dT*dT*dT*dG*dT*eG*eT*kG*kT; antisense) [Compound 1198768]”, the “YAP1 (% UTC)” value under setting [1] is reported as 61 % UTC. With “1197199 (antisense kA*kT*kA*dT*dG*dG*dT*dT*dT*dT*dG*dT*dG*kT*kG*kT) [Compound 1197199]”, the “YAP1 (% UT)” value under setting [2] is listed as 75 % UT. In the case of “1198380 (kA*dG*dA*dG*dT*dA*dT*dG*dT*dG*dG*k[5mC]*eA*kA*eT*kA; antisense) [Compound 1198380]”, the “YAP1 (% UTC)” value under setting [3] worked out at 18 % UTC. As to “1200839 (kT*kT*kA*dT*dA*mU*dG*dG*dT*dT*dT*dT*dG*kT*kG*kT; antisense) [Compound 1200839]”, under setting [4], the “YAP1 (% UT)” value was determined as 44 % UT. On to “1197296 (kT*kG*k[5mC]*dT*mU*dT*dG*dG*dA*dA*dG*dA*dT*k[5mC]*kT*kG) [Compound 1197296]”, for which the “YAP1 (% UT)” value under setting [5] amounted to 36 % UT. In the case of “1198467 (antisense kT*kA*dG*dA*dG*dT*dA*dT*dG*dT*dG*eG*k[5mC]*eA*kA*eT) [Compound 1198467]”, the “YAP1 (% UTC)” value under setting [6] came out at 27 % UTC. Take “1198825 (kG*kA*dG*dG*dT*dA*dT*dA*dA*d[5mC]*dT*kG*eG*kG*e[5mC]*kA; antisense) [Compound 1198825]”: the “YAP1 (% UT)” value (Table 46, Yap1 mRNA as percent of untreated control, SNU-449 cells, single dose) amounted to 64 % UT. With “1198215 (kT*k[5mC]*dT*dA*dT*dA*dT*dT*dA*dG*dA*eG*eT*eA*kT*kG; antisense) [Compound 1198215]”, the “YAP1 (% UTC)” value under setting [7] was determined as 120 % UTC.

With “1198284 (kT*kG*kT*d[5mC]*dT*d[5mC]*dA*dT*dG*d[5mC]*d[5mC]*dT*kT*eA*kT*eA; antisense) [Compound 1198284]”, the “YAP1 (% UT)” value under setting [2] is given as 27 % UT. As for “1197295 (G_{ks}^{m}C_{ks}T_{ks}T_{ds}U_{ys}G_{ds}G_{ds}A_{ds}A_{ds}G_{ds}A_{ds}T_{ds}C_{ds}T_{ks}G_{ks}A_{k}; as printed in the source, key not given here) [Compound 1197295]”, under setting [5], the “YAP1 (% UT)” value is on record as 24 % UT. For the substance “1198654 (kA*k[5mC]*dT*dT*dT*dT*dA*d[5mC]*dA*dT*dT*dA*kG*eG*kA*eA; antisense) [Compound 1198654]”, under setting [1], the “YAP1 (% UTC)” value is given as 91 % UTC. Regarding “1198511 (kA*k[5mC]*dT*d[5mC]*dT*dT*dA*dT*dA*dT*dG*eG*kT*eT*kT*eT; antisense) [Compound 1198511]”, the “YAP1 (% UTC)” value under setting [8] turned out to be 53 % UTC.

“1198513 (k[5mC]*kA*dA*d[5mC]*dT*d[5mC]*dT*dT*dA*dT*dA*eT*kG*eG*kT*eT; antisense) [Compound 1198513]”: the “YAP1 (% UTC)” value under setting [8] stood at 63 % UTC. With “1198460 (antisense kG*kA*dA*dA*dT*dT*dG*dT*d[5mC]*dT*d[5mC]*eA*kT*eG*k[5mC]*e[5mC]) [Compound 1198460]”, the “YAP1 (% UTC)” value under setting [6] amounted to 17 % UTC. With “1198446 (kA*dA*d[5mC]*dT*dT*dT*dA*dA*dA*dG*dT*kG*eT*kA*eT*kG; antisense) [Compound 1198446]”, the “YAP1 (% UTC)” value under setting [9] is listed as 83 % UTC. “1200857 (kA*kG*kT*dG*dT*mA*dT*dG*dT*d[5mC]*dA*dG*dA*kA*kG*kA; antisense) [Compound 1200857]”: under setting [4], the “YAP1 (% UT)” value is listed as 4 % UT.

For “1198464 (antisense kA*kT*dA*dT*dG*dG*dA*dA*dA*dT*dT*eG*kT*e[5mC]*kT*e[5mC]) [Compound 1198464]”, the “YAP1 (% UTC)” value under setting [6] came to 41 % UTC. In the case of “1095491 (antisense kA*k[5mC]*dT*dG*dA*dG*dG*dT*dA*dT*dA*kA*d[5mC]*kT*dG*kG) [Compound 1095491]”, under setting [10], the “YAP1 (% UTC)” value is on record as 65 % UTC. For “1198558 (antisense kT*kA*kT*dA*dT*dT*dA*dG*dA*dG*dT*dA*kT*kG*kT*eG) [Compound 1198558]”, the “YAP1 (% UT)” value under setting [11] is 46 % UT. For the substance “1198409 (kA*dG*dT*dG*d[5mC]*dT*dT*dT*dG*dG*dA*kA*eG*kA*eT*k[5mC]; antisense) [Compound 1198409]”, under setting [3], the “YAP1 (% UTC)” value amounted to 19 % UTC.

As to “1197312 (kT*kG*kT*dA*mU*dG*dT*d[5mC]*dA*dG*dA*dA*dG*kA*kG*kT; antisense) [Compound 1197312]”, the “YAP1 (% UT)” value under setting [5] is listed as 10 % UT.

For “1198694 (antisense kT*kA*dT*dG*dT*dA*dA*dT*dA*dT*dT*dG*k[5mC]*eA*kA*eT) [Compound 1198694]”, the “YAP1 (% UTC)” value under setting [7] amounted to 110 % UTC. “1200860 (kT*kA*kA*dA*dG*mU*dG*dT*dA*dT*dG*dT*d[5mC]*kA*kG*kA; antisense) [Compound 1200860]”: the “YAP1 (% UT)” value under setting [4] was determined as 16 % UT. Consider “1198307 (kT*kT*kA*d[5mC]*dA*dT*dT*dA*dG*dG*dA*dA*k[5mC]*eA*kA*eG; antisense) [Compound 1198307]”, for which the “YAP1 (% UT)” value under setting [2] amounted to 49 % UT. As for “1198397 (k[5mC]*dA*d[5mC]*dT*dT*dT*dT*dA*d[5mC]*dA*dT*kT*eA*kG*eG*kA; antisense) [Compound 1198397]”, the “YAP1 (% UTC)” value under setting [3] came out at 17 % UTC. “1198583 (antisense kA*kG*kG*dA*dT*dG*d[5mC]*dA*dT*dG*dG*dT*kT*kT*kT*eT) [Compound 1198583]”: the “YAP1 (% UT)” value under setting [11] came to 27 % UT. On to “1198516 (kA*kT*dA*dT*dT*dG*d[5mC]*dA*dA*dT*d[5mC]*eT*kG*eT*k[5mC]*eT; antisense) [Compound 1198516]”, for which the “YAP1 (% UTC)” value under setting [8] is reported as 50 % UTC. Take “1198250 (k[5mC]*kT*dT*dA*dT*dA*dT*dG*dG*dT*dT*eT*eT*eG*kT*kG; antisense) [Compound 1198250]”: the “YAP1 (% UTC)” value under setting [6] amounted to 50 % UTC.

In the case of “1198726 (kT*eT*kA*dG*dA*dG*dT*dA*dT*dG*dT*dG*eG*e[5mC]*kA*kA; antisense) [Compound 1198726]”, the “YAP1 (% UTC)” value under setting [9] stood at 28 % UTC. “1198692 (antisense kT*kG*dT*dA*dA*dT*dA*dT*dT*dG*d[5mC]*dA*kA*eT*k[5mC]*eT) [Compound 1198692]”: the “YAP1 (% UTC)” value under setting [1] is reported as 120 % UTC. For “1198930 (kA*kT*dA*dG*dT*dG*d[5mC]*dT*dT*dT*dG*kG*dA*kA*dG*kA; antisense) [Compound 1198930]”, under setting [10], the “YAP1 (% UTC)” value came out at 68 % UTC. For “1198273 (k[5mC]*kT*dT*dT*dA*dA*dA*dG*dT*dG*dT*eA*eT*eG*kT*k[5mC]; antisense) [Compound 1198273]”, under setting [6], the “YAP1 (% UTC)” value is on record as 52 % UTC. As to “1198792 (antisense kT*eT*kT*dA*dA*dA*dG*dT*dG*dT*dA*dT*eG*eT*k[5mC]*kA) [Compound 1198792]”, under setting [1], the “YAP1 (% UTC)” value amounted to 48 % UTC. Consider “1198621 (kA*kA*kG*dT*dA*dA*dG*dG*dT*dT*dT*d[5mC]*k[5mC]*k[5mC]*kA*eG; antisense) [Compound 1198621]”, for which the “YAP1 (% UT)” value (Table 50, Yap1 mRNA remaining as percent of untreated control (UT), SNU-449 cells, single dose) amounted to 80 % UT. On to “1197222 (antisense kA*kA*kG*dT*dA*dA*dG*dG*dT*dT*dT*d[5mC]*d[5mC]*k[5mC]*kA*kG) [Compound 1197222]”, for which the “YAP1 (% UT)” value under setting [12] came out at 40 % UT. On to “1198872 (kT*kG*dT*dA*dT*dG*dT*d[5mC]*dA*dG*dA*kA*eG*kA*eG*kT; antisense) [Compound 1198872]”, for which, under setting [12], the “YAP1 (% UT)” value worked out at 8 % UT. Regarding “1198236 (kG*kT*dG*d[5mC]*dT*dT*dT*dG*dG*dA*dA*eG*eA*eT*k[5mC]*kT) [Compound 1198236]”, under setting [7], the “YAP1 (% UTC)” value is 24 % UTC.

As for “1198539 (antisense kG*kA*d[5mC]*dT*dA*dA*dG*dT*dA*dA*dG*eG*kT*eT*kT*e[5mC]) [Compound 1198539]”, the “YAP1 (% UTC)” value under setting [8] is on record as 54 % UTC. On to “1198699 (kA*kA*dA*dG*dT*dG*dT*dA*dT*dG*dT*d[5mC]*kA*eG*kA*eA; antisense) [Compound 1198699]”, for which, under setting [7], the “YAP1 (% UTC)” value stood at 30 % UTC.
